Drawing on BindingDB's records for doi:10.7270/Q2PR7TCX (The Scripps Research Institute Molecular Screening Center, 2007), this text covers IC50 for 21 compounds.

By IC50 is commonly meant the concentration needed to halve the response being measured. A lower IC50 goes with inhibition by little substance.

The target of the first experiment is Steroidogenic factor 1 (Homo sapiens, UniProt Q13285). In words: inhibition of SF-1 LBD-driven luciferase – cell-based, CHO-K1, Gal4-SF-1 LBD, luciferase luminescence, counter-screen for RORA inhibitor project, dose response (AID 611).
Chain of Steroidogenic factor 1 (Q13285 whole entry, the tested form may be a part): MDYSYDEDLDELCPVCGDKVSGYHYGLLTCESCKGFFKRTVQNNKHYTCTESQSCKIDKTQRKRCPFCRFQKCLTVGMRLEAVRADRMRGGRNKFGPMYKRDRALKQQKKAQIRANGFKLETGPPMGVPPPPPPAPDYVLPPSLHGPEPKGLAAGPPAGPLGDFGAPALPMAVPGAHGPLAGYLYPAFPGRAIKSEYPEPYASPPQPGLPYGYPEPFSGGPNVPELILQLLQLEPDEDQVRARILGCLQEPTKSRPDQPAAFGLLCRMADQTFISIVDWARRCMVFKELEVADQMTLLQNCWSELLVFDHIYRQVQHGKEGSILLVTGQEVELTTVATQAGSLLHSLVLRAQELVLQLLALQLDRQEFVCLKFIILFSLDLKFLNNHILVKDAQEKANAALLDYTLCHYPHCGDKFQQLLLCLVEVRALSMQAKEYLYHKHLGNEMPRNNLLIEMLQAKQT
Conditions: not given
On the technique in general: A counterscreen serves to expose hits that act by an unwanted route or on another target.
In turn, `COc1cccc(C(=O)c2sc(NC(C)C)nc2N)c1` [MLS000036929] gave a half-inhibitory concentration (IC50) of 5.26 µM.

Turning to `O=C(CSc1nnc(COc2cccc3cccnc23)o1)N1CCc2ccccc21` [1-(2,3-Dihydro-indol-1-yl)-2-[5-(quinolin-8-yloxymethyl)-[1,3,4]oxadiazol-2-ylsulfanyl]-ethanone], the concentration for half-maximal inhibition (IC50) worked out at 3.97 µM.

Consider `CC(=O)c1c(C)[nH]c(C(=O)Nc2ccc(C)cn2)c1C` [SMR000026816], for which the concentration for half-maximal inhibition (IC50) turned out to be 4.92 µM.

In the case of `O=C(CSC1=NCCS1)Nc1ccnc2ccccc12` [2-(4,5-dihydro-1,3-thiazol-2-ylsulfanyl)-N-quinolin-4-yl-ethanamide], half-maximal inhibition (IC50) was put at 5.95 µM.

In the case of `Cc1ccc2[nH]c3c(N4CCCCCC4)ncnc3c2c1` [4-(azepan-1-yl)-8-methyl-5H-pyrimido[5,4-b]indole], the IC50 is 7.45 µM.

In turn, `CCOc1ccc(-c2nc(CSCC(=O)NCCN3CCOCC3)c(C)o2)cc1` [2-({[2-(4-ethoxyphenyl)-5-methyl-1,3-oxazol-4-yl]methyl}thio)-N-(2-morpholin-4-ylethyl)acetamide] gave an IC50 of 4 µM.

On to `CNC(=O)CCc1nc(-c2ccc(C(C)(C)C)cc2)no1` [3-[3-(4-tert-butylphenyl)-1,2,4-oxadiazol-5-yl]-N-methyl-propanamide], for which half-maximal inhibition (IC50) was put at 0.075 µM.

Consider `COc1ccc(C(=O)Nn2c(SCC(=O)NCC3CCCO3)nc3ccccc3c2=O)cc1` (stereo unspecified) [4-methoxy-N-[4-oxidanylidene-2-[2-oxidanylidene-2-(oxolan-2-ylmethylamino)ethyl]sulfanyl-quinazolin-3-yl]benzamide], for which 4.51 µM corresponded to half-maximal inhibition (IC50).

The compound `COc1ccc(C(=O)Nc2ccc(C)cn2)c(OC)c1` [2,4-dimethoxy-N-(5-methylpyridin-2-yl)benzamide] gave a 50% inhibitory concentration (IC50) of more than 1.22 µM.

`CCn1c2ccccc2c2cc(NC(=O)CSc3nnnn3-c3ccccc3)ccc21` [MLS000051054] showed a half-inhibitory concentration (IC50) of 6.74 µM.

In turn, `Cc1ccc(C(=O)CC=Nc2ccccn2)cc1` [(E)-1-(4-methylphenyl)-3-(2-pyridinylamino)-2-propen-1-one] came in with a half-inhibitory concentration (IC50) of 1.49 µM.

For the compound `O=C(Nc1nc2ccccc2[nH]1)c1ccc(F)cc1` [N-1,3-dihydro-2H-benzimidazol-2-ylidene-4-fluorobenzamide], the IC50 was more than 11 µM.

For the compound `Cc1cc(C=c2sc3nc4ccccc4n3c2=O)c(C)n1-c1ccccn1` [2-[(2,5-dimethyl-1-pyridin-2-yl-pyrrol-3-yl)methylidene]-[1,3]thiazolo[3,2-a]benzimidazol-1-one], the IC50 was more than 0.00503 µM.

`O=S(=O)(C/C(=C/CO)S(=O)(=O)c1ccccc1)c1ccccc1` [(Z)-3,4-bis(benzenesulfonyl)but-2-en-1-ol]: the IC50 was 4.03 µM.

In turn, `C[C@H]1CCCC=CC2C[C@H](O)CC2[C@H](O)C=CC(=O)O1` (stereo partly drawn) [(7S,12R,15S)-12,15-dihydroxy-7-methyl-8-oxabicyclo[11.3.0]hexadeca-2,10-dien-9-one] displayed a 50% inhibitory concentration (IC50) of 8.95 µM.

The compound `CCOc1ccc(S(=O)(=O)n2cnc3cc(C)c(C)cc32)cc1` [1-(4-Ethoxy-benzenesulfonyl)-5,6-dimethyl-1H-benzoimidazole] returned a half-inhibitory concentration (IC50) of more than 11 µM.

Take `CCOC(=O)c1[n-]c2ccccc2c1[N+]#N` [(Z)-(3-diazonio-2-indolylidene)-ethoxymethanolate]: the IC50 turned out to be 13.2 µM.

Still in this experiment, the particulars now being: inactive by the depositor's call.
Turning to `COc1cccc(Cn2c(NCc3ccco3)nc3c2c(=O)n(C)c(=O)n3C)c1` [8-(2-furanylmethylamino)-7-[(3-methoxyphenyl)methyl]-1,3-dimethylpurine-2,6-dione], the IC50 was found to be 10.7 µM.

`Cc1ccc2nc(C(F)(F)F)c(C#N)c(N)c2c1` [4-amino-6-methyl-2-(trifluoromethyl)-3-quinolinecarbonitrile] yielded an IC50 of 11.6 µM.

In the case of `Cc1ccc(S(=O)(=O)NCc2ccncc2)cc1` [4-Methyl-N-pyridin-4-ylmethyl-benzenesulfonamide], the IC50 is 11.6 µM.

In turn, `CCCNc1nc2c(c(=O)n(C)c(=O)n2C)n1Cc1cccc(C)c1` [1,3-Dimethyl-7-(3-methyl-benzyl)-8-propylamino-3,7-dihydro-purine-2,6-dione] gave an IC50 of 21.5 µM.
